19 compounds from US7279491B2 (Janssen Pharmaceutica N.V., priority 2002, dated 2007) can be followed below.

Structures are written as SMILES.

What is called Ki is a measure of affinity in units of concentration, obtained from inhibition or displacement. Read a high Ki as a looser hold on the target.

For the experiment, the target named is T1, human histamine H3 receptor (Homo sapiens, UniProt Q9Y5N1).
T1 construct: One microgram of supercoiled H3 receptor cDNA was added to the cells and mixed; expressed in transfected cells; membranes
T1 sequence (Q9Y5N1 whole entry): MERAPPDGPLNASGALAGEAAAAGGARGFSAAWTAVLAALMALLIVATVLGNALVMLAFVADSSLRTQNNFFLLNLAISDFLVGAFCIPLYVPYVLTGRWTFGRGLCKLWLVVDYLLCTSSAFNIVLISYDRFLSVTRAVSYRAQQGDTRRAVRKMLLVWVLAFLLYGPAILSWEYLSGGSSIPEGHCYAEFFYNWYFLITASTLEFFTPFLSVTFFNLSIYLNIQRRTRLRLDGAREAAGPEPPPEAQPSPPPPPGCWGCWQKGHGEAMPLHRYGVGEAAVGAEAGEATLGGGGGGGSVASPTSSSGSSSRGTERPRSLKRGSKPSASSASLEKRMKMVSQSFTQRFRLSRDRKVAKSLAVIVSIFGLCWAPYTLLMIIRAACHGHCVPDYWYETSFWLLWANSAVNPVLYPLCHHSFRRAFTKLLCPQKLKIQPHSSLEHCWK
The experiment is described as follows: {3H}-N-methylhistamine binding to membranes of histamine H3 receptor-expressing SK-N-MC cells. Conditions: 0.8 nM {3H}-N-methylhistamine, 45 min at 25° C., Ki=(IC50)/(1+({L}/(Kd)), Kd 800 pM). As for the experimental part: Transfection of Cells with Human Histamine Receptor
A 10 cm tissue culture dish with a confluent monolayer of SK-N-MC cells was split two days prior to transfection. Using sterile technique the media was removed and the cells were detached from the dish by the addition of trypsin. One fifth of the cells were then placed onto a new 10 cm dish. Cells were grown in a 37° C. incubator with 5% CO2 in Minimal Essential Media Eagle with 10% Fetal Bovine Serum. After two days cells were approximately 80% confluent. These were removed from the dish with trypsin and pelleted in a clinical centrifuge. The pellet was then re-suspended in 400 μL complete media and transferred to an electroporation cuvette with a 0.4 cm gap between the electrodes. One microgram of supercoiled H3 receptor cDNA was added to the cells and mixed. The voltage for the electroporation was set at 0.25 kV, the capacitance was set at 960 μF. After electroporation the cells were diluted into 10 mL complete media and plated onto four 10 cm dishes. Because of the variability in the efficiency of electroporation, four different concentrations of cells were plated. The ratios used were; 1:20, 1:10, 1:5, with the remainder of the cells being added to the fourth dish. The cells were allowed to recover for 24 h before adding the selection media (complete media with 600 μg/mL G418). After 10 days dishes were analyzed for surviving colonies of cells. Dishes with well-isolated colonies were used. Cells from individual colonies were isolated and tested. SK-N-MC cells were used because they give efficient coupling for inhibition of adenylate cyclase. The clones that gave the most robust inhibition of adenylate cyclase in response to histamine were used for further study.
{^3H}-N-methylhistamine Binding
Cell pellets from histamine H3 receptor-expressing SK-N-MC cells were homogenized in 20 mM Tris HCl/0.5 mM EDTA. Supernatants from an 800 g spin were collected, recentrifuged at 30,000 g for 30 min. Pellets were re-homogenized in 50 mM Tris/5 mM EDTA (pH 7.4). Membranes were incubated with 0.8 nM {^3H}-N-methylhistamine plus/minus test compounds for 45 min at 25° C. and harvested by rapid filtration over GF/C glass fiber filters (pretreated with 0.3% polyethylenimine) followed by four washes with ice-cold buffer. Filters were dried, added to 4 mL scintillation cocktail and then counted on a liquid scintillation counter. Non-specific binding was defined with 10 μM histamine. The pKi values were calculated based on a Kd of 800 pM and a ligand concentration ({L}) of 800 pM according to the formula: Ki=(IC50)/(1+({L}/(Kd))
On to `c1ccc(N2CCC(CN3CCCCC3)CC2)c(CN2CCOCC2)c1` [Example 22, 4-{2-(4-piperidin-1-ylmethyl-piperidin-1-yl)-benzyl}-morpholine], for which the affinity, expressed as Ki, was 4500 nM.
The result for `CN1CCN(C2CCN(c3ccc(CN4CCOCC4)cc3)CC2)CC1` [Example 48, 4-{4-{4-(4-Methyl-piperazin-1-yl)-piperidin-1-yl}-benzyl}-morpholine] reads 1000 nM; that for `FC(F)(F)c1cc(N2CCC(CN3CCCC3)CC2)ccc1CN1CCCCC1` [Example 72, 1-[4-(4-Pyrrolidin-1-ylmethyl-piperidin-1-yl)-2-trifluoromethyl-benzyl]-piperidine], 8 nM; that for `c1ccc(NCC2CCN(c3ccc(CN4CCCC4)cc3)CC2)cc1` [Example 55, Phenyl-{1-(4-pyrrolidin-1-ylmethyl-phenyl)-piperidin-4-ylmethyl}-amine], 8 nM.
`CN1CCN(CC2CCN(c3ccc(CN4CCCC4)cc3)CC2)CC1` [Example 27, 1-Methyl-4-{1-(4-pyrrolidin-1-ylmethyl-phenyl)-piperidin-4-ylmethyl}-piperazine] returned an inhibition constant Ki of 1.4 nM.
The result for `c1cc(N2CCC(N3CCOCC3)CC2)ccc1CN1CCOCC1` [Example 50, 4-{1-(4-Morpholin-4-ylmethyl-phenyl)-piperidin-4-yl}-morpholine] reads 272 nM.
The figure for `c1cc(N2CCC(CN3CCCC3)CC2)ccc1CNC1CCCCC1` [Example 37, Cyclohexyl-{4-(4-pyrrolidin-1-ylmethyl-piperidin-1-yl)-benzyl}-amine] is 2 nM; for `c1cc(N2CCC(CN3CCCC3)CC2)ccc1CN1CCSCC1` [Example 40, 4-{4-(4-Pyrrolidin-1-ylmethyl-piperidin-1-yl)-benzyl}-thiomorpholine] it is 4 nM.
The result for `O=[N+]([O-])c1cc(CN2CCCCC2)ccc1N1CCC(CN2CCCC2)CC1` [Example 69] reads 2 nM; that for `c1cc(N2CCC(CN3CCOCC3)CC2)ccc1CN1CCCC1` [Example 31, 4-{1-(4-Pyrrolidin-1-ylmethyl-phenyl)-pieridin-4-ylmethyl}-morpholine], 2 nM.
Consider `c1cc(CN2CCSCC2)cc(N2CCC(CN3CCCC3)CC2)c1` [Example 32, 4-{3-(4-Pyrrolidin-1-ylmethyl-piperidin-1-yl)-benzyl}-thiomorpholine], for which the affinity corresponds to a Ki of 9 nM.
The result for `c1cc(N2CCC(CN3CCCC3)CC2)ccc1CN1CCCC1` [Example 58, 4-Pyrrolidin-1-ylmethyl-1-(4-pyrrolidin-1-ylmethyl-phenyl)-piperidine] reads 0.6 nM; that for `FC(F)(F)c1cc(CN2CCCCC2)ccc1N1CCC(CN2CCCC2)CC1` [Example 68, 1-[4-(4-Pyrrolidin-1-ylmethyl-piperidin-1-yl)-3-trifluoromethyl-benzyl]-piperidine], 14 nM.
The result for `Cc1cc(CN2CCCC2)ccc1N1CCC(CN2CCCC2)CC1` [Example 74] reads 1 nM; that for `CN(C)Cc1ccc(N2CCC(CN3CCCC3)CC2)cc1` [Example 42, Dimethyl-{4-(4-pyrrolidin-1-ylmethyl-piperidin-1-yl)-benzyl}-amine], 5 nM.
The figure for `OCC1CCN(Cc2ccc(N3CCC(CN4CCCC4)CC3)c(C(F)(F)F)c2)CC1` [Example 82, {1-[4-(4-Pyrrolidin-1-ylmethyl-piperidin-1-yl)-3-trifluoromethyl-benzyl]-piperidin-4-yl}-methanol] is 170 nM.
`O=[N+]([O-])c1cc(CN2CCC(O)CC2)ccc1N1CCC(CN2CCCC2)CC1` [Example 71, 1-[3-Nitro-4-(4-pyrrolidin-1-ylmethyl-piperidin-1-yl)-benzyl]-piperidin-4-ol] gave an inhibitory constant (Ki) of 5 nM. Compared with the last compound, the Ki is about 34-fold lower.
The result for `CCN(C)C1CCN(c2ccc(CN3CCOCC3)cc2)CC1` [Example 49, Ethyl-methyl-{1-(4-morpholin-4-ylmethyl-phenyl)-piperidin-4-yl}-amine] reads 14 nM.
The result for `CN1CCN(Cc2ccc(N3CCC(CN4CCCC4)CC3)cc2)CC1` [Example 39, 1-Methyl-4-{4-(4-pyrrolidin-1-ylmethyl-piperidin-1-yl)-benzyl}-piperazine] reads 6 nM.
